Measurements as given in the NIST ThermoML archive (doi:10.1021/je400803f).

Assay: xn = mol fraction of the nth substance listed
Settings: 101 kPa, Liquid, Vibrating tube method

CCCCN(C=O)CCCC [N,N-dibutylformamide] + CCCC[N+]1(C)CCCC1.FC(F)(F)C(F)(F)[P-](F)(F)(F)(C(F)(F)C(F)(F)F)C(F)(F)C(F)(F)F
mass density [kg/m3]
Settings | 293.15 K | 298.15 K | 303.15 K | 308.15 K | 313.15 K | 318.15 K | 323.15 K
x2 = 0.0351 | 928.01 | 923.97 | 919.87 | 915.81 | 911.67 | 907.43 | 903.16
x2 = 0.0697 | 972.58 | 968.41 | 964.18 | 960.06 | 955.82 | 951.45 | 947.14
x2 = 0.0998 | 1008.79 | 1004.57 | 1000.33 | 996.06 | 991.74 | 987.31 | 982.93
x2 = 0.1498 | 1064.17 | 1059.81 | 1055.39 | 1051.03 | 1046.54 | 1042.09 | 1037.62
x2 = 0.1994 | 1114.29 | 1109.89 | 1105.41 | 1100.9 | 1096.39 | 1091.73 | 1087.01
x2 = 0.2999 | 1204.19 | 1199.58 | 1194.89 | 1190.17 | 1185.45 | 1180.61 | 1175.67
x2 = 0.4003 | 1281.29 | 1276.52 | 1271.65 | 1266.78 | 1261.89 | 1256.88 | 1251.71
x2 = 0.499 | 1347.44 | 1342.55 | 1337.52 | 1332.49 | 1327.52 | 1322.34 | 1317.03
x2 = 0.5993 | 1406.59 | 1401.54 | 1396.37 | 1391.2 | 1386.12 | 1380.87 | 1375.47
x2 = 0.6799 | 1449.07 | 1443.87 | 1438.69 | 1433.45 | 1428.23 | 1422.89 | 1417.48
x2 = 0.7754 | 1494.51 | 1489.34 | 1483.96 | 1478.61 | 1473.39 | 1467.94 | 1462.42
x2 = 0.8021 | 1506.51 | 1501.2 | 1495.89 | 1490.51 | 1485.21 | 1479.75 | 1474.28
x2 = 0.9011 | 1548.52 | 1543.24 | 1537.81 | 1532.31 | 1526.89 | 1521.4 | 1515.91
x2 = 0.949 | 1568.08 | 1562.74 | 1557.33 | 1551.79 | 1546.31 | 1540.77 | 1535.23

CCCC[N+]1(C)CCCC1.FC(F)(F)C(F)(F)[P-](F)(F)(F)(C(F)(F)C(F)(F)F)C(F)(F)C(F)(F)F + CN(C)C=O
mass density [kg/m3]
Settings | 293.15 K | 298.15 K | 303.15 K | 308.15 K | 313.15 K | 318.15 K | 323.15 K
x1 = 0.0165 | 993.84 | 988.9 | 983.96 | 978.95 | 973.88 | 968.76 | 963.52
x1 = 0.0379 | 1045.32 | 1040.31 | 1035.26 | 1030.17 | 1024.98 | 1019.76 | 1014.46
x1 = 0.0636 | 1098.24 | 1093.11 | 1087.96 | 1082.78 | 1077.52 | 1072.2 | 1066.82
x1 = 0.0999 | 1160.65 | 1155.44 | 1150.21 | 1144.9 | 1139.55 | 1134.13 | 1128.66
x1 = 0.1381 | 1214.48 | 1209.17 | 1203.86 | 1198.5 | 1193.09 | 1187.58 | 1182.02
x1 = 0.2002 | 1284.15 | 1278.78 | 1273.37 | 1267.93 | 1262.4 | 1256.85 | 1251.25
x1 = 0.3038 | 1367.83 | 1362.38 | 1356.95 | 1351.43 | 1345.95 | 1340.13 | 1334.59
x1 = 0.3944 | 1420.86 | 1415.36 | 1409.86 | 1404.36 | 1398.78 | 1393.18 | 1387.5
x1 = 0.4946 | 1465.66 | 1460.2 | 1454.71 | 1449.18 | 1443.63 | 1438.04 | 1432.36
x1 = 0.5997 | 1502.25 | 1496.77 | 1491.29 | 1485.78 | 1480.25 | 1474.66 | 1469.03
x1 = 0.6972 | 1529.32 | 1523.85 | 1518.39 | 1512.87 | 1507.34 | 1501.77 | 1496.17
x1 = 0.7887 | 1550.58 | 1545.07 | 1539.56 | 1534.11 | 1528.58 | 1523.04 | 1517.43
x1 = 0.8853 | 1569.6 | 1564.14 | 1558.67 | 1553.16 | 1547.65 | 1542.09 | 1536.51

CCCC[N+]1(C)CCCC1.FC(F)(F)C(F)(F)[P-](F)(F)(F)(C(F)(F)C(F)(F)F)C(F)(F)C(F)(F)F + CC(=O)N(C)C
mass density [kg/m3]
Settings | 293.15 K | 298.15 K | 303.15 K | 308.15 K | 313.15 K | 318.15 K | 323.15 K
x1 = 0.0182 | 983.51 | 978.8 | 974.05 | 969.23 | 964.38 | 959.48 | 954.43
x1 = 0.0658 | 1076.12 | 1071.23 | 1066.29 | 1061.3 | 1056.27 | 1051.2 | 1046.01
x1 = 0.099 | 1128.83 | 1123.84 | 1118.81 | 1113.75 | 1108.63 | 1103.46 | 1098.22
x1 = 0.1925 | 1243.41 | 1238.24 | 1233.05 | 1227.86 | 1222.59 | 1217.27 | 1211.86
x1 = 0.2995 | 1334.81 | 1329.56 | 1324.29 | 1318.96 | 1313.61 | 1308.22 | 1302.76
x1 = 0.4032 | 1399.72 | 1394.36 | 1389.05 | 1383.7 | 1378.3 | 1372.86 | 1367.34
x1 = 0.5012 | 1446.97 | 1441.77 | 1436.59 | 1431.01 | 1425.38 | 1420.2 | 1414.53
x1 = 0.6048 | 1487.12 | 1482 | 1476.86 | 1470.97 | 1465.48 | 1460.22 | 1454.65
x1 = 0.7078 | 1520.04 | 1514.92 | 1509.86 | 1504.04 | 1498.52 | 1492.71 | 1487.58
x1 = 0.806 | 1546.68 | 1541.65 | 1536.23 | 1530.12 | 1524.91 | 1519.13 | 1513.85
x1 = 0.8469 | 1556.58 | 1551.46 | 1546.01 | 1539.99 | 1534.65 | 1528.99 | 1523.64
x1 = 0.9176 | 1572.41 | 1567.01 | 1561.51 | 1555.89 | 1550.24 | 1544.79 | 1539.24
